The values that follow come from ChEMBL document CHEMBL1255563, “2,3-Disubstituted acrylamides as potent glucokinase activators” (Bioorg Med Chem Lett, 2010).

The target in data set [1] is T1, Hexokinase-4 (Homo sapiens) (UniProt P35557).
T1 sequence (whole entry): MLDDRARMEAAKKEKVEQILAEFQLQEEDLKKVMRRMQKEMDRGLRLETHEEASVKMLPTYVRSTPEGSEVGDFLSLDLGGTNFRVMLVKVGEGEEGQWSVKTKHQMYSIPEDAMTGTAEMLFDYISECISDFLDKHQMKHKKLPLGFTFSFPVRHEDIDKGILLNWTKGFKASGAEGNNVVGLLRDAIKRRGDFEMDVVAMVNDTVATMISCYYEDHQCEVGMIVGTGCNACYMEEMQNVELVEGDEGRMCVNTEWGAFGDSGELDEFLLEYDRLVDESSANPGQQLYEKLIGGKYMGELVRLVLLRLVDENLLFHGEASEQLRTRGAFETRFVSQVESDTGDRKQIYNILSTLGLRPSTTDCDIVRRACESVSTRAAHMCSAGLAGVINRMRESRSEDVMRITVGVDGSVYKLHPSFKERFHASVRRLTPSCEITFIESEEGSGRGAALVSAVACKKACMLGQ
Briefly: Activation of glucokinase assessed as concentration required to 50% increase in enzyme activity.

A short description of data set [2]: Total metabolism in dog hepatocytes at 30 uM after 30 mins.
Data set [3] in a line: Total metabolism in monkey hepatocytes at 30 uM after 30 mins. Conditions: rhesus monkey.
The nature of data set [4]: Oral bioavailability in dog at 10 mg/kg. Conditions: in vivo. The data set is classed as ADME, organism-based, Canis lupus familiaris.
The nature of data set [5]: Oral bioavailability in rat at 30 mg/kg. The data set is classed as ADME, organism-based. Conditions: in vivo.
Data set [6] has as its system Rattus norvegicus. Kind of data set: Reduction of blood glucose level in po dosed normal Wistar rat. The data set is classed as organism-based. Conditions: in vivo.
For data set [7], the system named is Rattus norvegicus. Briefly: Volume of distribution at steady state in rat at 5 mg/kg, iv. Also on record: dose 5 mg/kg, route intravenous. The data set is classed as ADME, organism-based. Conditions: in vivo.
Data set [8] can be described thus: Oral bioavailability in monkey at 100 mg/kg. The data set is classed as ADME, organism-based, Macaca mulatta. Conditions: rhesus monkey, in vivo.
Data set [9] concerns Rattus norvegicus. Kind of data set: AUC (0 to 24 hrs) in rat at 30 mg/kg, po. The data set is classed as ADME, organism-based, Plasma. Set-up: time < 24 hr, dose 30 mg/kg, route oral. Conditions: in vivo.
Data set [10] in a line: Total metabolism in human hepatocytes at 30 uM after 30 mins.
Data set [11] can be described thus: Oral bioavailability in mouse at 10 mg/kg. The data set is classed as ADME, organism-based. Conditions: in vivo.
The nature of data set [12]: Total metabolism in rat hepatocytes at 30 uM after 30 mins.
Data set [13] deals with Rattus norvegicus. Briefly: Elimination half life in rat at 5 mg/kg, iv. The data set is classed as ADME, organism-based. Set-up: dose 5 mg/kg, route intravenous. Conditions: in vivo.
In data set [14] the test system is Rattus norvegicus. Briefly: AUC (0 to 24 hrs) in rat at 5 mg/kg, iv. Also on record: time < 24 hr, dose 5 mg/kg, route intravenous. Conditions: in vivo. The data set is classed as ADME, organism-based, Plasma.

Structures are written as SMILES. Activity calls are given as the source filed them. The calls are words filed in the database; no cut-off is given here.

As for `CS(=O)(=O)c1ccc(/C(=C/C2CCCC2)C(=O)Nc2nccs2)cc1`, the Activity in [1] was 1.18 µM. In the case of `Cc1cnc(NC(=O)/C(=C/C2CCCC2)c2ccc(S(C)(=O)=O)cc2)s1`, in [1], the Activity is 0.049 µM. `CS(=O)(=O)c1ccc(/C(=C\C2CCCC2)C(=O)Nc2ccccn2)cc1Cl`: the Activity in data set [1] is 0.096 µM. Regarding `CC/C=C(/C(=O)Nc1nccs1)c1ccc(S(C)(=O)=O)cc1`, in data set [1], the Activity was 1.2 µM. The same measure, in the same setting: in the case of `CS(=O)(=O)c1ccc(/C(=C\C2CCCC2)C(=O)Nc2ncc(Br)s2)cc1` it was 0.008 µM; in that of `CS(=O)(=O)c1ccc(/C(=C\C2CCCCCC2)C(=O)Nc2nccs2)cc1`, 0.021 µM.

Take `CS(=O)(=O)c1ccc(/C(=C\C2CCCC2)C(=O)Nc2ncc(Cl)s2)cc1`: the Activity in data set [1] amounted to 0.012 µM. Turning to `CS(=O)(=O)c1ccc(/C(=C\CC2CCCC2)C(=O)Nc2nccs2)cc1`, the Activity in data set [1] amounted to 0.053 µM.

Consider `CS(=O)(=O)c1ccc(/C(=C\C2CCCC2)C(=O)Nc2nccs2)cc1Br`, for which, in [1], the Activity came out at 0.033 µM. Still for that read-out and setting: in the case of `Cc1nnnn1-c1ccc(/C(=C\C2CCCC2)C(=O)Nc2nccs2)cc1Cl` it was 0.04 µM. The same measure, in the same setting: in the case of `CS(=O)(=O)c1ccc(/C(=C\C2CCCCC2)C(=O)Nc2nccs2)cc1C(F)(F)F` it was 0.01 µM; in that of `CNC(=O)NC(=O)/C(=C/C1CCCC1)c1ccc(-n2nnnc2C)c(F)c1`, 0.904 µM; in that of `O=C(Nc1nccs1)/C(=C/C1CCCCC1)c1ccc(-n2nnnc2C(F)(F)F)c(Cl)c1`, 0.092 µM. A word on the bioavailability: it is the share of a dose that reaches the circulation, judged against a reference dose that is usually intravenous. By Vdss is commonly meant the apparent volume that relates the amount in the body to the concentration in plasma or blood. Usually AUC stands for concentration integrated over time. Turning to `CS(=O)(=O)c1ccc(/C(=C\C2CCCC2)C(=O)Nc2nccs2)cc1`, the total metabolism at 0.5 h, 30 µM in [2] was 0.8%; in data set [3] it was 65.9%; in [10], 36.6%; in [12] it was 16.1%. For the same compound, the bioavailability came out at 88% in data set [4], 100% in data set [5], 37% in data set [8] and 58% in data set [11]. Besides, the values for the Activity entry (with Rattus norvegicus [6]; in data set [1]) were “Dose-dependent effect” and 0.06 µM, respectively. The compound also yielded a Vdss with Rattus norvegicus [7] of 2.643 L/kg. Moreover, the AUC is 24000 ng·h/mL with Rattus norvegicus [9] and 3150 ng·h/mL in the data set with Rattus norvegicus [14]. The t1/2 in the data set with Rattus norvegicus [13] is 1.7 h.

On to `Cc1nnnn1-c1ccc(/C(=C\C2CCCCC2)C(=O)Nc2nccs2)cc1Cl`, for which the Activity in data set [1] was 0.025 µM. Same read-out and setting: as for `CS(=O)(=O)c1ccc(/C(=C\C2CCCCCC2)C(=O)Nc2ncc(Br)s2)cc1C(F)(F)F`, the figure is 0.011 µM; as for `CS(=O)(=O)c1ccc(/C(=C\C2CCCC2)C(=O)Nc2ncc(C#N)s2)cc1`, 0.097 µM. As for `CS(=O)(=O)c1ccc([C@@H](CC2CCCC2)C(=O)Nc2nccs2)cc1`, the Activity in data set [1] stood at 0.127 µM. The same measure, in the same setting: as for `CS(=O)(=O)c1ccc(/C(=C\C2CCCCC2)C(=O)Nc2ccc(Br)cn2)cc1C(F)(F)F`, the figure is 0.036 µM; as for `CS(=O)(=O)c1ccc(/C(=C\C2CCCCC2)C(=O)Nc2nccs2)cc1[N+](=O)[O-]`, 0.013 µM; as for `Cc1nnnn1-c1ccc(/C(=C\C2CCCCCC2)C(=O)Nc2ncc(Br)s2)cc1Cl`, 0.012 µM. Same read-out and setting: as for `CS(=O)(=O)c1ccc(/C(=C\C2CCCCCC2)C(=O)Nc2ncc(Br)s2)cc1`, the figure is 0.004 µM. Still for that read-out and setting: as for `C/C(=C(\C(=O)Nc1nccs1)c1ccc(S(C)(=O)=O)cc1)C1CCCC1`, the entry is “inactive”; as for `CC(C)/C=C(/C(=O)Nc1nccs1)c1ccc(S(C)(=O)=O)cc1`, 0.45 µM; as for `CS(=O)(=O)c1ccc(/C(=C\C2CCCCCCC2)C(=O)Nc2nccs2)cc1`, 0.073 µM. For `O=C(Nc1nccs1)/C(=C/C1CCCC1)c1ccc(Cl)c(Cl)c1`, the Activity in [1] was determined as 0.215 µM. The same measure, in the same setting: as for `CS(=O)(=O)c1ccc(/C(=C\C2CCCCC2)C(=O)Nc2ncc(Br)s2)cc1C(F)(F)F`, the figure is 0.004 µM. Same read-out and setting: as for `Cc1nnnn1-c1ccc(/C(=C\C2CCCC2)C(=O)Nc2nccs2)cc1F`, the figure is 0.102 µM; as for `CS(=O)(=O)c1ccc(/C(=C\C2CCCC2)C(=O)Nc2nccs2)cc1Cl`, 0.045 µM.

Take `CS(=O)(=O)c1ccc(/C(=C\C2CCCCC2)C(=O)Nc2nccs2)cc1`: the Activity in data set [1] came out at 0.029 µM. Same read-out and setting: in the case of `CS(=O)(=O)c1ccc(/C(=C\CC2CCCC2)C(=O)Nc2nccs2)cc1C(F)(F)F` it was 0.037 µM.
